Results from article PMC10033409, “Autoregulation of GPCR signalling through the third intracellular loop” (Nature, 2023).
Values joined by “and” are separate entries in the source; they are usually repeats but may differ in a detail not shown here. Equal entries are not always repeated.

System: β2AR
Experiment: Radiolabelled antagonist-binding assay (saturation);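 further: membranes expressing β2AR constructs, equilibrated with radioligand on ice, bound ligand retained on GF/C filters, Bmax normalized to membrane protein from a DC assay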
Design: species or system human; Bmax / 125I-Cyanopindolol saturation binding signal: unit not given here
Settings: for Bmax / fmol 125I-Cyanopindolol/mg sample: replicates 1-3 and Average; for fmol 125I-Cyanopindolol/mg sample, Fit: fitted curve
[1] = Sensor + Gs-peptide, 125I-Cyanopindolol 0.000239059 nM
[2] = Sensor + Gs-peptide, 125I-Cyanopindolol 0.0167722 nM
[3] = Sensor + Gs-peptide, 125I-Cyanopindolol 0.0344858 nM
[4] = Sensor + Gs-peptide, 125I-Cyanopindolol 0.073983 nM
[5] = Sensor + Gs-peptide, 125I-Cyanopindolol 0.202201 nM
[6] = Sensor + Gs-peptide, 125I-Cyanopindolol 0.415365 nM
[7] = Sensor + Gs-peptide, 125I-Cyanopindolol 0.83063 nM
[8] = Sensor + Gs-peptide, 125I-Cyanopindolol 1.64238 nM

## [^125I](±)-cyanopindolol
Sensor + Gs-pep
  Bmax: 1992.85 and 2334.87 and 1180.14
[1]
  fmol 125I-Cyanopindolol/mg sample, Fit: 0.00E+00 fmol/mg sample
  fmol 125I-Cyanopindolol/mg sample: -1.828 fmol/mg sample and 0.6291 fmol/mg sample and 0.5155 fmol/mg sample
[2]
  fmol 125I-Cyanopindolol/mg sample, Fit: 3.85E+02 fmol/mg sample
  fmol 125I-Cyanopindolol/mg sample: 331.932 fmol/mg sample and 483.578 fmol/mg sample and 237.189 fmol/mg sample
[3]
  fmol 125I-Cyanopindolol/mg sample, Fit: 6.37E+02 fmol/mg sample
  fmol 125I-Cyanopindolol/mg sample: 633.08 fmol/mg sample and 885.671 fmol/mg sample and 427.455 fmol/mg sample
[4]
  fmol 125I-Cyanopindolol/mg sample, Fit: 9.68E+02 fmol/mg sample
  fmol 125I-Cyanopindolol/mg sample: 973.823 fmol/mg sample and 1370.71 fmol/mg sample and 652.022 fmol/mg sample
[5]
  fmol 125I-Cyanopindolol/mg sample, Fit: 1.38E+03 fmol/mg sample
  fmol 125I-Cyanopindolol/mg sample: 1415.68 fmol/mg sample and 1842.87 fmol/mg sample and 880.16 fmol/mg sample
[6]
  fmol 125I-Cyanopindolol/mg sample, Fit: 1.58E+03 fmol/mg sample
  fmol 125I-Cyanopindolol/mg sample: 1527.87 fmol/mg sample and 2049.46 fmol/mg sample and 1008.05 fmol/mg sample
[7]
  fmol 125I-Cyanopindolol/mg sample, Fit: 1.71E+03 fmol/mg sample
  fmol 125I-Cyanopindolol/mg sample: 1817.18 fmol/mg sample and 2238.94 fmol/mg sample and 1107.54 fmol/mg sample
[8]
  fmol 125I-Cyanopindolol/mg sample, Fit: 1.78E+03 fmol/mg sample
  fmol 125I-Cyanopindolol/mg sample: 1925.74 fmol/mg sample and 2301.14 fmol/mg sample and 1169.54 fmol/mg sample
Sensor + Gs-peptide, 125I-Cyanopindolol 1.64238 nM, mean
  fmol 125I-Cyanopindolol/mg sample: 1798.81 fmol/mg sample
Sensor, 125I-Cyanopindolol 0.0198458 nM (Average)
  fmol 125I-Cyanopindolol/mg sample, Fit: 3.34E+02 fmol/mg sample
Sensor, 125I-Cyanopindolol 0.0420593 nM (Average)
  fmol 125I-Cyanopindolol/mg sample, Fit: 5.96E+02 fmol/mg sample
Sensor, 125I-Cyanopindolol 0.234223 nM (Average)
  fmol 125I-Cyanopindolol/mg sample, Fit: 1.38E+03 fmol/mg sample
Sensor, 125I-Cyanopindolol 0.468204 nM (Average)
  fmol 125I-Cyanopindolol/mg sample, Fit: 1.60E+03 fmol/mg sample
Sensor, 125I-Cyanopindolol 0.871756 nM (Average)
  fmol 125I-Cyanopindolol/mg sample, Fit: 1.73E+03 fmol/mg sample
Sensor, 125I-Cyanopindolol 1.70257 nM (Average)
  fmol 125I-Cyanopindolol/mg sample, Fit: 1.81E+03 fmol/mg sample
Sensor
  Bmax: 1914.14 and 2557.54 and 1116.04
∆ICL3 + 30 µM Q, 0.0283 nM, Average
  125I-Cyanopindolol saturation binding signal: 236.51
∆ICL3 + 30 µM Q, 0.0283 nM, Fit
  125I-Cyanopindolol saturation binding signal: 285.20
∆ICL3 + 30 µM Q, 0.0283 nM, experiments 1-3
  125I-Cyanopindolol saturation binding signal: 222.98 and 255.55 and 231.00
∆ICL3 + 30 µM Q, 0.0474 nM, Average
  125I-Cyanopindolol saturation binding signal: 366.56
∆ICL3 + 30 µM Q, 0.0474 nM, Fit
  125I-Cyanopindolol saturation binding signal: 463.24
∆ICL3 + 30 µM Q, 0.0474 nM, experiments 1-3
  125I-Cyanopindolol saturation binding signal: 296.41 and 421.89 and 381.36
∆ICL3 + 30 µM Q, 0.10 nM, Average
  125I-Cyanopindolol saturation binding signal: 910.97
∆ICL3 + 30 µM Q, 0.10 nM, Fit
  125I-Cyanopindolol saturation binding signal: 816.24
∆ICL3 + 30 µM Q, 0.10 nM, experiments 1-3
  125I-Cyanopindolol saturation binding signal: 840.60 and 993.89 and 898.42
∆ICL3 + 30 µM Q, 1.85 nM, Average
  125I-Cyanopindolol saturation binding signal: 1906.34
∆ICL3 + 30 µM Q, 1.85 nM, Fit
  125I-Cyanopindolol saturation binding signal: 1809.97
∆ICL3 + 30 µM Q, 1.85 nM, experiments 1-3
  125I-Cyanopindolol saturation binding signal: 1586.99 and 2170.25 and 1961.77
∆ICL3, 0.0283 nM, Average
  125I-Cyanopindolol saturation binding signal: 126.54
∆ICL3, 0.0283 nM, Fit
  125I-Cyanopindolol saturation binding signal: 399.52
∆ICL3, 0.0283 nM, experiments 1-3
  125I-Cyanopindolol saturation binding signal: 94.88 and 85.74
∆ICL3, 0.0474 nM, Average
  125I-Cyanopindolol saturation binding signal: 687.11
∆ICL3, 0.0474 nM, Fit
  125I-Cyanopindolol saturation binding signal: 612.62
∆ICL3, 0.10 nM, Average
  125I-Cyanopindolol saturation binding signal: 1201.35
∆ICL3, 0.10 nM, Fit
  125I-Cyanopindolol saturation binding signal: 1024.98
∆ICL3, 1.85 nM, Average
  125I-Cyanopindolol saturation binding signal: 2504.14
∆ICL3, 1.85 nM, Fit
  125I-Cyanopindolol saturation binding signal: 2413.51
∆ICL3, 1.85 nM, experiments 1-3
  125I-Cyanopindolol saturation binding signal: 2561.55 and 2855.56 and 2095.33
